Assay [1] has as its target T1, human glucocorticoid receptor (GR) (Homo sapiens (Human), UniProt P04150). Briefly: GRE Agonist Assay (ChagoK1 18:7:2 s4/GRE MMTV-GRE-LacZ reporter cell line). In kind it is cell-based. As to conditions: for Emax at 1 µM: ChaGo-K-1, relative to full agonist effect of dexamethasone, read-out: TA agonist Observed max Effect at 1 μM (%); for TA agonist pEC50: transactivation in agonist mode, ChagoK1 GRE-LacZ reporter cells, 24 hours. The source says:
GRE Agonist Assay A reporter cell line (ChagoK1 18:7:2 s4/GRE) was established by stable transfection of the human bronchogenic carcinoma cell line, ChaGo K1 (ATCC: HTB 168) with a MMTV-GRE-LacZ reporter construct. The generated cell line allows for identification of compounds showing agonist activity at the human glucocorticoid receptor (GR) via induction of LacZ gene expression. Ligand-activated GR binds to the Glucocorticoid Response Element (GRE) in the promoter of the LacZ gene and transcription is initiated. The resulting beta-galactosidase activity is measured through a colour reaction (change in absorbance). Cryo-preserved ChagoK1 18:7:2 s4/GRE cells were suspended in RPMI medium with 10% FBS, 1% NEAA and 1% sodium pyruvate, and seeded as 50000 cells/200 ul/well in 96-well plates and cultured at 37° C. with 5% CO2 and 95% humidity for 24 hours. 1 μl compound was added at different concentrations to the cells and incubated for another 24 hours. […] The reaction was then terminated by addition of 100 μl stop solution (300 mM glycine, 15 mM EDTA, pH 11.3, adjusted with NaOH). […]) Where A=min Y, B=max Y, C=log EC50 and D=Slope factor

Assay [2] addresses T1, human glucocorticoid receptor (GR). In words: GRE Antagonist Assay (ChagoK1 18:7:2 s4/GRE reporter cells pre-stimulated with dexamethasone). The following applies: for Emax at 1 µM: ChaGo-K-1, relative to full antagonist effect of Mifepristone (RU486), read-out: TA antagonist Observed max Effect at 1 μM (%); for TA antagonist pIC50: transactivation in antagonist mode, pre-stimulated with dexamethasone 70 nM. Type of assay: cell-based. The source says:
GRE Antagonist Assay A reporter cell line (ChagoK1 18:7:2 s4/GRE) was established by stable transfection of the human bronchogenic carcinoma celline, ChaGo K1 (ATCC: HTB 168) with a MMTV-GRE-LacZ reporter construct. The generated cell line allows for identification of compounds showing antagonist activity at the human glucocorticoid receptor (GR) via reduction of LacZ gene expression. Dexamethasone-activated GR binds to the Glucocorticoid Response Element (GRE) in the promoter of the LacZ gene and transcription is initiated. Antagonistic properties of compounds are assessed as beta-galactosidase intensity reduction from pre-stimulation with dexamethasone through a colour reaction (change in absorbance). Cryo-preserved ChagoK1 18:7:2 s4/GRE cells were suspended in RPMI medium with 10% FBS, 1% NEAA and 1% sodium pyruvate, and seeded as 50000 cells/200 ul/well in 96-well plates and cultured at 37° C. with 5% CO2 and 95% humidity for 24 hr. […] The reaction was then terminated by addition of 100 μl stop solution (300 mM glycine, 15 mM EDTA, pH 11.3, adjusted with NaOH). The plates were measured at 420 nm for absorbance in a SpectraMax reader (Molecular Device). […]) Where A=min Y, B=max Y, C=log IC50 and D=Slope factor

Each structure is given as a SMILES string.

T1 sequence (P04150 whole entry): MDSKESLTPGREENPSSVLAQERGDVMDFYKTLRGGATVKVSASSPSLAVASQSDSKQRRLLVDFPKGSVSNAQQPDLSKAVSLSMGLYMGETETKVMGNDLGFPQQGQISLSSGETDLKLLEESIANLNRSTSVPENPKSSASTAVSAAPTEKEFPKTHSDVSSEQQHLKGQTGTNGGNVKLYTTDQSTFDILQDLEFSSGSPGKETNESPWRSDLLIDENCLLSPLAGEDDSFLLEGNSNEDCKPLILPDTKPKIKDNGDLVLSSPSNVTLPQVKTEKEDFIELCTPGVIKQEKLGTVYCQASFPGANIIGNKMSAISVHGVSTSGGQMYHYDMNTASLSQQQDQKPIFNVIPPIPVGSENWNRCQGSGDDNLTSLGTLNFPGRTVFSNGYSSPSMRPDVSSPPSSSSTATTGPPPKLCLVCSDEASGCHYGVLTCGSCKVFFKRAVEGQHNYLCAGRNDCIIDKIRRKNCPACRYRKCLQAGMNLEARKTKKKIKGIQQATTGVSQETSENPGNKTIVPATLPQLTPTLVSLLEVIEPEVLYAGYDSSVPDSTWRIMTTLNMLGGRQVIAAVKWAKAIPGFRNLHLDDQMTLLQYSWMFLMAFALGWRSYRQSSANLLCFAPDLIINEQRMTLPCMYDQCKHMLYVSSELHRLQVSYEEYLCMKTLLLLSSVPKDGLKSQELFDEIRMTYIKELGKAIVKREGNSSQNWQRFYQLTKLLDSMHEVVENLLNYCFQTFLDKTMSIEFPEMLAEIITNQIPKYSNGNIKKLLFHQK

For `CC(C)[C@H](NC(=O)C(F)(F)F)[C@H](Oc1ccc2c(cnn2-c2ccc(=O)n(C)c2)c1)c1cc(F)cc(F)c1` [Example 4], in assay [1], the Emax at 1 µM came out at 42% and the “TA agonist pEC50” value was determined as 8.7. In addition, in assay [2], the Emax at 1 µM was determined as 51% and the “TA antagonist pIC50” value was found to be 8.8.

Regarding `CC(C)[C@H](NC(=O)C(F)(F)F)[C@H](Oc1ccc2c(cnn2-c2ccc(=O)n(C)c2)c1)c1cc(Cl)cc(Cl)c1` [Example 14, N-[(1R,2S)-1-(3,5-dichlorophenyl)-3-methyl-1-{[1-(1-methyl-6-oxo-1,6-dihydropyridin-3-yl)-1H-indazol-5-yl]oxy}butan-2-yl]-2,2,2-trifluoroacetamide], in assay [1], the Emax at 1 µM worked out at 20% and the “TA agonist pEC50” value amounted to 7.7. For the same compound, in assay [2], the Emax at 1 µM is 65% and the “TA antagonist pIC50” value was determined as 6.9.

Turning to `CC(C)[C@H](NC(=O)C(F)(F)F)[C@H](Oc1ccc2c(cnn2-c2ccc(=O)n(C)c2)c1)c1cc(F)cc(Cl)c1` [Example 18, N-[(1R,2S)-1-[3-chloro-5-fluorophenyl]-3-methyl-1-{[1-(1-methyl-6-oxo-1,6-dihydropyridin-3-yl)-1H-indazol-5-yl]oxy}butan-2-yl]-2,2,2-trifluoroacetamide], in assay [1], the Emax at 1 µM amounted to 32% and the “TA agonist pEC50” value stood at 8.8. In assay [2], the Emax at 1 µM was determined as 61% and the “TA antagonist pIC50” value was 7.6.

In the case of `CC(C)[C@H](NC(=O)C(C)(F)F)[C@H](Oc1ccc2c(cnn2-c2ccc(=O)n(C)c2)c1)c1cc(F)cc(Cl)c1` [Example 19, N-[(1R,2S)-1-(3-chloro-5-fluorophenyl)-3-methyl-1-{[1-(1-methyl-6-oxo-1,6-dihydropyridin-3-yl)-1H-indazol-5-yl]oxy}butan-2-yl]-2,2-difluoropropanamide], in assay [1], the Emax at 1 µM amounted to 38% and the “TA agonist pEC50” value stood at 8.5. Further, in assay [2], the Emax at 1 µM is 58% and the “TA antagonist pIC50” value is recorded as 7.6.

Consider `CC(C)[C@H](NC(=O)C(C)(F)F)[C@H](Oc1ccc2c(cnn2-c2ccc(=O)n(C)c2)c1)c1ccc(Cl)c(F)c1` [Example 20, N-[(1R,2S)-1-(4-chloro-3-fluorophenyl)-3-methyl-1-{[1-(1-methyl-6-oxo-1,6-dihydropyridin-3-yl)-1H-indazol-5-yl]oxy}butan-2-yl]-2,2-difluoropropanamide], for which, in assay [1], the Emax at 1 µM turned out to be 43% and the “TA agonist pEC50” value stood at 8.3. In assay [2], the Emax at 1 µM is 66% and the “TA antagonist pIC50” value is recorded as 7.3.

As for `CC(C)[C@H](NC(=O)C(C)(F)F)[C@H](Oc1ccc2c(cnn2-c2ccc(=O)n(C)c2)c1)c1ccc(Cl)cc1` [Example 7, N-[(1R,2S)-1-(4-chlorophenyl)-3-methyl-1-{[1-(1-methyl-6-oxo-1,6-dihydropyridin-3-yl)-1H-indazol-5-yl]oxy}butan-2-yl]-2,2-difluoropropanamide], in assay [1], the Emax at 1 µM worked out at 46% and the “TA agonist pEC50” value was determined as 8.1. Also, in assay [2], the Emax at 1 µM came to 54% and the “TA antagonist pIC50” value came out at 7.1.

Take `CC(C)[C@H](NC(=O)C(C)(F)F)[C@H](Oc1ccc2c(cnn2-c2ccc(=O)n(C)c2)c1)c1ccc(OC(F)F)cc1` [Example 11, N-[(1R,2S)-1-[4-(difluoromethoxy)phenyl]-3-methyl-1-{[1-(1-methyl-6-oxo-1,6-dihydropyridin-3-yl)-1H-indazol-5-yl]oxy}butan-2-yl]-2,2-difluoropropanamide]: in assay [1], the Emax at 1 µM was determined as 28% and the “TA agonist pEC50” value was determined as 8.1. In assay [2], the Emax at 1 µM amounted to 62% and the “TA antagonist pIC50” value was 6.7.

`CCn1cc(-n2ncc3cc(O[C@H](c4ccccc4)[C@@H](NC(=O)C(C)(F)F)C(C)C)ccc32)ccc1=O` [Example 23, N-[(1R,2S)-1-{[1-(1-ethyl-6-oxo-1,6-dihydropyridin-3-yl)-1H-indazol-5-yl]oxy}-3-methyl-1-phenylbutan-2-yl]-2,2-difluoropropanamide]: in assay [1], the Emax at 1 µM amounted to 14% and the “TA agonist pEC50” value is reported as 7.6. Moreover, in assay [2], the Emax at 1 µM was 70% and the “TA antagonist pIC50” value was 6.4.

In the case of `CC(C)[C@H](NC(=O)C(C)(F)F)[C@H](Oc1ccc2c(cnn2-c2ccc(=O)n(C)c2)c1)c1cc(Cl)cc(Cl)c1` [Example 8, N-[(1R,2S)-1-(3,5-dichlorophenyl)-3-methyl-1-{[1-(1-methyl-6-oxo-1,6-dihydropyridin-3-yl)-1H-indazol-5-yl]oxy}butan-2-yl]-2,2-difluoropropanamide], in assay [1], the Emax at 1 µM was 36% and the “TA agonist pEC50” value is on record as 7.7. For the same compound, in assay [2], the Emax at 1 µM is 56% and the “TA antagonist pIC50” value is reported as 6.8.

Consider `CC(C)[C@H](NC(=O)C(F)(F)F)[C@H](Oc1ccc2c(cnn2-c2ccc(=O)n(C)c2)c1)c1ccc(OC(F)F)cc1` [Example 16, N-[(1R,2S)-1-[4-(difluoromethoxy)phenyl]-3-methyl-1-{[1-(1-methyl-6-oxo-1,6-dihydropyridin-3-yl)-1H-indazol-5-yl]oxy}butan-2-yl]-2,2,2-trifluoroacetamide], for which, in assay [1], the Emax at 1 µM turned out to be 20% and the “TA agonist pEC50” value was 8.0. Further, in assay [2], the Emax at 1 µM worked out at 75% and the “TA antagonist pIC50” value was 6.6.

Consider `CC(C)[C@H](NC(=O)C(F)(F)F)[C@H](Oc1ccc2c(cnn2-c2ccc(=O)n(C)c2)c1)c1ccccc1` [Example 2, 2,2,2-trifluoro-N-[(1R,2S)-3-methyl-1-{[1-(1-methyl-6-oxo-1,6-dihydropyridin-3-yl)-1H-indazol-5-yl]oxy}-1-phenylbutan-2-yl]acetamide], for which the Emax at 1 µM came to 25% in assay [1] and 67% in assay [2].

`CC(C)[C@H](NC(=O)C(F)(F)F)[C@H](Oc1ccc2c(cnn2-c2ccc(=O)n(C)c2)c1)c1ccc(C(F)(F)F)cc1` [Example 15, 2,2,2-trifluoro-N-{(1R,2S)-3-methyl-1-{[1-(1-methyl-6-oxo-1,6-dihydropyridin-3-yl)-1H-indazol-5-yl]oxy}-1-[4-(trifluoromethyl)phenyl]butan-2-yl}acetamide]: in assay [1], the Emax at 1 µM amounted to 27% and the “TA agonist pEC50” value was found to be 8.2. In addition, in assay [2], the Emax at 1 µM is 64% and the “TA antagonist pIC50” value is on record as 7.3.

`CC(C)[C@H](NC(=O)C(C)(F)F)[C@H](Oc1cc2cnn(-c3ccc(=O)n(C)c3)c2cc1Cl)c1ccccc1` [Example 21, N-[(1R,2S)-1-{[6-chloro-1-(1-methyl-6-oxo-1,6-dihydropyridin-3-yl)-1H-indazol-5-yl]oxy}-3-methyl-1-phenylbutan-2-yl]-2,2-difluoropropanamide]: in assay [1], the Emax at 1 µM was 42% and the “TA agonist pEC50” value came to 8.3. Further, in assay [2], the Emax at 1 µM was 48% and the “TA antagonist pIC50” value was 7.3.

In the case of `CC(C)[C@H](NC(=O)C(F)(F)F)[C@H](Oc1ccc2c(cnn2-c2ccc(=O)n(C)c2)c1)c1ccc(Cl)cc1` [Example 13, N-[(1R,2S)-1-(4-chlorophenyl)-3-methyl-1-{[1-(1-methyl-6-oxo-1,6-dihydropyridin-3-yl)-1H-indazol-5-yl]oxy}butan-2-yl]-2,2,2-trifluoroacetamide], in assay [1], the Emax at 1 µM turned out to be 28% and the “TA agonist pEC50” value worked out at 8.3. In assay [2], the Emax at 1 µM was determined as 72% and the “TA antagonist pIC50” value is 6.9.

Turning to `CC(C)[C@H](NC(=O)C(C)(F)F)[C@H](Oc1ccc2c(cnn2-c2ccc(=O)n(C)c2)c1)c1ccc(OC(F)(F)F)cc1` [Example 9, 2,2-difluoro-N-{(1R,2S)-3-methyl-1-{[1-(1-methyl-6-oxo-1,6-dihydropyridin-3-yl)-1H-indazol-5-yl]oxy}-1-[4-(trifluoromethoxy)phenyl]butan-2-yl}propanamide], in assay [1], the Emax at 1 µM came out at 22% and the “TA agonist pEC50” value was determined as 7.7. Besides, in assay [2], the Emax at 1 µM came to 63% and the “TA antagonist pIC50” value is given as 6.9.
